{"source": "patent US20130012432A1", "about": "“Peptides for Treatment of Obesity” (Novo Nordisk A/S, priority 2010, published 2013)", "key": {"physchem": {"assay": "physchem", "procedure": "From a stock solution in vehicle, either H2O or 10 mM phosphate, containing 1 mg (as weighed) compound per ml, 8-11 aliquots are withdrawn and pH-adjusted individually with HCl/NaOH, to cover the whole pH range."}, "MC1 receptor": {"biological_target": "MC1 receptor (Homo sapiens, UniProt Q01726)", "sequence (Q01726 whole entry)": "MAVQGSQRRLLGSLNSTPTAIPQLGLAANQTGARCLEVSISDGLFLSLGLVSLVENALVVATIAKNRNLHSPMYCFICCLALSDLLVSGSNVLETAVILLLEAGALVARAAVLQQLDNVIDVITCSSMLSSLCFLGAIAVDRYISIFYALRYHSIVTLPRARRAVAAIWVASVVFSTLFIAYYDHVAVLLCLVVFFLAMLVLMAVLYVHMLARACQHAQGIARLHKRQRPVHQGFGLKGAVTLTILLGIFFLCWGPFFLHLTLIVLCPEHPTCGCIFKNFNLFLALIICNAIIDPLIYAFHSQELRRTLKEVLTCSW", "assay": "biochemical", "procedure": "Assay (IV)—Melanocortin Receptor 1 (MC1) Binding Assay\nThe MC1 receptor binding assay was performed on BHK cell membranes stably expressing the MC1 receptor. The assay was performed in a total volume of 250 μl: 25 μl of ^125NDP-α-MSH (22 pM in final concentration), 25 μl of test compound/control and 200 μl of cell membrane (25 μg/ml). Test compounds were dissolved in DMSO. Radioactively labeled ligand, membranes and test compounds were diluted in buffer: 25 mM HEPES, pH 7.4, 0.1 mM CaCl2, 1 mM MgSO4, 1 mM EDTA, 0.1% HSA and 0.005% Tween™ 20. Alternatively, HSA may be substituted with ovalbumin. The samples were incubated at 30° C. for 90 min. in Costar round-bottom microtiter plates. Incubation was terminated by filtration on a Packard harvester filtermate. Rapid filtration through Packard Unifilter-96 GF/B filters pre-treated with polyetylenimine (PerkinElmer 6005277). The filters were washed with ice-cold 0.9% NaCl 8-10 times. The plates were air-dried at app. 55° C. for 30 min, and 50 μl Microscint 0 (Packard, cat. No. 6013616) was added to each well. The plates were counted in a Topcounter (1 min/well).\nThe data were analysed by non-linear regression analysis of binding curves, using the Windows™ program GraphPad™ Prism (GraphPad Software, USA)."}}, "note": "Positions of bridges follow the written chain, without caps; N, C: chain ends. Non-standard residues stand in square brackets, D forms with d. Residues, ends and D or L forms follow the SMILES beside them. Groups on a side chain read outwards from the residue. *: point of attachment. Palmitoyl(16-(5-tetrazolyl)) = O=C(CCCCCCCCCCCCCCCc1nnn[nH]1)*; Lys(CH2CO2H)2 = N[C@@H](CCCCN(CC(=O)O)CC(=O)O)C(=O)O; X1 = O=C(O)CCCCCCCCCCCCCCCCC(=O)NCCOCCOCCN*; C16 diacid = O=C(O)CCCCCCCCCCCCCCC(=O)*; Orn = NCCC[C@H](N)C(=O)O; Dab = NCC[C@H](N)C(=O)O; AEEA = NCCOCCOCC(=O)O", "data": [{"smiles": "CC(=O)N[C@H]1CCNC(=O)C[C@@H](C(=O)N2CCC[C@H]2C(=O)N2CCC[C@H]2C(=O)N[C@@H](CCCNC(=N)N)C(=O)N[C@@H](CCC(=O)O)C(=O)N[C@@H](CCCCN(CC(=O)O)CC(=O)O)C(=O)N[C@@H](CO)C(=O)N[C@@H](CO)C(=O)NCCOCCOCCNC(=O)CCCCCCCCCCCCCCCCC(=O)O)NC(=O)[C@H](Cc2c[nH]c3ccccc23)NC(=O)[C@H](CCCNC(=N)N)NC(=O)[C@@H](Cc2ccccc2)NC(=O)[C@H](Cc2c[nH]cn2)NC1=O", "note": "[Example 9, Ac-c[Dab-His-D-Phe-Arg-Trp-Asp]-Pro-Pro-Arg-Glu-Lys(biscarboxymethyl)-Ser-Ser-NH(2-{2-[2-(17-carboxyheptadecanoylamino)ethoxy]ethoxy}ethyl)] (Ac-[Dab]H[dF]RWDPPRE[Lys(CH2CO2H)2]SS-X1; lactam 1-6)", "values": [{"measurement": "solubility", "setting": "physchem; pH 4.7, Solubility Conc.", "value": 26, "unit": "µM"}, {"measurement": "solubility", "setting": "physchem; pH 5.2, Solubility Conc.", "value": 22, "unit": "µM"}, {"measurement": "solubility", "setting": "physchem; pH 5.3, Solubility Conc.", "value": 40, "unit": "µM"}, {"measurement": "solubility", "setting": "physchem; pH 6.6, Solubility Conc.", "value": 79, "unit": "µM"}, {"measurement": "solubility", "setting": "physchem; pH 7.3, Solubility Conc.", "value": 158, "unit": "µM"}, {"measurement": "solubility", "setting": "physchem; pH 7.4, Solubility Conc.", "value": 183, "unit": "µM"}, {"measurement": "solubility", "setting": "physchem; pH 7.7, Solubility Conc.", "value": 242, "unit": "µM"}, {"measurement": "solubility", "setting": "physchem; pH 7.9, Solubility Conc.", "value": 259, "unit": "µM"}, {"measurement": "solubility", "setting": "physchem; pH 8.2, Solubility Conc.", "value": 280, "unit": "µM"}, {"measurement": "Ki", "setting": "MC1 receptor", "value": "> 10", "unit": "µM"}]}, {"smiles": "CC(=O)N[C@H]1CCCNC(=O)C[C@@H](C(=O)N2CCC[C@H]2C(=O)N2CCC[C@H]2C(=O)N[C@@H](Cc2c[nH]cn2)C(=O)N[C@@H](CCC(=O)O)C(=O)N[C@@H](CCCCN(CC(=O)O)CC(=O)O)C(=O)N[C@@H](CCCCNC(=O)COCCOCCNC(=O)CCCCCCCCCCCCCCCc2nnn[nH]2)C(N)=O)NC(=O)[C@H](Cc2c[nH]c3ccccc23)NC(=O)[C@H](CCCNC(=N)N)NC(=O)[C@@H](Cc2ccccc2)NC(=O)[C@H](Cc2c[nH]cn2)NC1=O", "note": "[Example 10, Ac-c[Orn-His-D-Phe-Arg-Trp-Asp]-Pro-Pro-His-Glu-Lys(biscarboxymethyl)-Lys[(2-{2-[16-(tetrazol-5-yl)hexadecanoylamino]ethoxy}ethoxy)acetyl]-NH2] (Ac-[Orn]H[dF]RWDPPHE[Lys(CH2CO2H)2]K([AEEA-Palmitoyl(16-(5-tetrazolyl))])-NH2; lactam 1-6)", "values": [{"measurement": "solubility", "setting": "physchem; pH 6, Solubility Conc.", "value": 35, "unit": "µM"}, {"measurement": "solubility", "setting": "physchem; pH 6.4, Solubility Conc.", "value": 88, "unit": "µM"}, {"measurement": "solubility", "setting": "physchem; pH 6.6, Solubility Conc.", "value": 287, "unit": "µM"}, {"measurement": "solubility", "setting": "physchem; pH 6.7, Solubility Conc.", "value": 514, "unit": "µM"}, {"measurement": "solubility", "setting": "physchem; pH 7, Solubility Conc.", "value": 517, "unit": "µM"}, {"measurement": "solubility", "setting": "physchem; pH 7.3, Solubility Conc.", "value": 517, "unit": "µM"}, {"measurement": "solubility", "setting": "physchem; pH 7.4, Solubility Conc.", "value": 516, "unit": "µM"}, {"measurement": "solubility", "setting": "physchem; pH 7.7, Solubility Conc.", "value": 521, "unit": "µM"}, {"measurement": "solubility", "setting": "physchem; pH 8, Solubility Conc.", "value": 531, "unit": "µM"}, {"measurement": "Ki", "setting": "MC1 receptor", "value": "> 10", "unit": "µM"}]}, {"smiles": "CC(=O)N[C@H]1CCCCNC(=O)C[C@@H](C(=O)N2CCC[C@H]2C(=O)N2CCC[C@H]2C(=O)N[C@@H](CCCNC(=N)N)C(=O)N[C@@H](CC(=O)O)C(=O)N[C@@H](CCCCN(CC(=O)O)CC(=O)O)C(=O)N[C@@H](CCCCNC(=O)COCCOCCNC(=O)CCCCCCCCCCCCCCCc2nnn[nH]2)C(N)=O)NC(=O)[C@H](Cc2c[nH]c3ccccc23)NC(=O)[C@H](CCCNC(=N)N)NC(=O)[C@@H](Cc2ccccc2)NC(=O)[C@H](Cc2c[nH]cn2)NC1=O", "note": "[Example 11, Ac-c[Lys-His-D-Phe-Arg-Trp-Asp]-Pro-Pro-Arg-Asp-Lys(biscarboxymethyl)-Lys[(2-{2-[16-(tetrazol-5-yl)hexadecanoylamino]ethoxy}ethoxy)acetyl]-NH2] (Ac-KH[dF]RWDPPRD[Lys(CH2CO2H)2]K([AEEA-Palmitoyl(16-(5-tetrazolyl))])-NH2; lactam 1-6)", "values": [{"measurement": "solubility", "setting": "physchem; pH 4.8, Solubility Conc.", "value": 51, "unit": "µM"}, {"measurement": "solubility", "setting": "physchem; pH 5.3, Solubility Conc.", "value": 29, "unit": "µM"}, {"measurement": "solubility", "setting": "physchem; pH 6, Solubility Conc.", "value": 25, "unit": "µM"}, {"measurement": "solubility", "setting": "physchem; pH 6.4, Solubility Conc.", "value": 36, "unit": "µM"}, {"measurement": "solubility", "setting": "physchem; pH 7, Solubility Conc.", "value": 147, "unit": "µM"}, {"measurement": "solubility", "setting": "physchem; pH 7.2, Solubility Conc.", "value": 364, "unit": "µM"}, {"measurement": "solubility", "setting": "physchem; pH 7.3, Solubility Conc.", "value": 479, "unit": "µM"}, {"measurement": "solubility", "setting": "physchem; pH 7.6, Solubility Conc.", "value": 472, "unit": "µM"}, {"measurement": "solubility", "setting": "physchem; pH 7.8, Solubility Conc.", "value": 479, "unit": "µM"}, {"measurement": "Ki", "setting": "MC1 receptor", "value": "> 10", "unit": "µM"}]}, {"smiles": "CC(=O)N[C@H]1CCC(=O)NCCC[C@@H](C(=O)N2CCC[C@H]2C(=O)N2CCC[C@H]2C(=O)N[C@@H](CC(=O)O)C(=O)N[C@@H](CCCCN(CC(=O)O)CC(=O)O)C(=O)N[C@@H](CCCCNC(=O)COCCOCCNC(=O)CCCCCCCCCCCCCCC(=O)O)C(N)=O)NC(=O)[C@H](Cc2c[nH]c3ccccc23)NC(=O)[C@H](CCCNC(=N)N)NC(=O)[C@@H](Cc2ccccc2)NC(=O)[C@H](Cc2c[nH]cn2)NC1=O", "note": "[Example 13, Ac-c[Glu-His-D-Phe-Arg-Trp-Orn]-Pro-Pro-Asp-Lys(biscarboxymethyl)-Lys({2-[2-(15-carboxypentadecanoylamino)ethoxy]ethoxy}acetyl)-NH2] (Ac-EH[dF]RW[Orn]PPD[Lys(CH2CO2H)2]K([AEEA-C16 diacid])-NH2; lactam 1-6)", "values": [{"measurement": "solubility", "setting": "physchem; pH 5.5, Solubility Conc.", "value": 348, "unit": "µM"}, {"measurement": "solubility", "setting": "physchem; pH 5.7, Solubility Conc.", "value": 494, "unit": "µM"}, {"measurement": "solubility", "setting": "physchem; pH 6.1, Solubility Conc.", "value": 473, "unit": "µM"}, {"measurement": "solubility", "setting": "physchem; pH 6.5, Solubility Conc.", "value": 469, "unit": "µM"}, {"measurement": "solubility", "setting": "physchem; pH 6.8, Solubility Conc.", "value": 459, "unit": "µM"}, {"measurement": "solubility", "setting": "physchem; pH 7.1, Solubility Conc.", "value": 506, "unit": "µM"}, {"measurement": "solubility", "setting": "physchem; pH 7.3, Solubility Conc.", "value": 467, "unit": "µM"}, {"measurement": "solubility", "setting": "physchem; pH 7.7, Solubility Conc.", "value": 472, "unit": "µM"}, {"measurement": "solubility", "setting": "physchem; pH 7.9, Solubility Conc.", "value": 493, "unit": "µM"}, {"measurement": "Ki", "setting": "MC1 receptor", "value": "> 10", "unit": "µM"}]}]}
